Patent US9346812B2, “Substituted pyrrolopyrimidine compounds, compositions thereof, and methods of treatment therewith” (Signal Pharmaceutical LLC, priority 2013, dated 2016)
pIC50: −log10 of the molar value.

Tested on: CAL51 cell proliferation
Assay: Cell Titer Glo Proliferation Assay (CAL51)
Type: cell-based, human
Details: Homo sapiens, CAL-51; CAL51 cell proliferation, 72 h, Cell Titer Glo luminescence; read-out: Act. Level
Summary of the method: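 Viability is measured by CellTiter-Glo luminescence after 72 h of compound exposure. CAL51 cells were seeded in growth medium with 10% FBS and 2 mM glutamine, cultured overnight, then dosed with compound dilutions, vehicle held at 0.2% DMSO.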

SMILES | pIC50
Cc1cc(C(=O)N(C)C)ccc1Nc1nc(OC2CCOCC2)c2c(-c3cncnc3)c[nH]c2n1 [Example 107, N,N,3-trimethyl-4-(5-(pyrimidin-5-yl)-4-(tetrahydro-2H-pyran-4-yloxy)-7H-pyrrolo[2,3-d]pyrimidin-2-ylamino)benzamide] | 6.40 to 7.00
CCOc1ccc(-c2c[nH]c3nc(Nc4ccc(C(=O)N(C)C)cc4C)nc(OC4CCOCC4)c23)cn1 [Example 109, 4-(5-(6-ethoxypyridin-3-yl)-4-(tetrahydro-2H-pyran-4-yloxy)-7H-pyrrolo[2,3-d]pyrimidin-2-ylamino)-N,N,3-trimethylbenzamide] | > 7.00
CNC(=O)c1ccc(Nc2nc(OC3CCCC3)c3c(-c4ccc5nc(N)[nH]c5c4)c[nH]c3n2)c(OC)c1 [Example 110, 4-(5-(2-amino-1H-benzo[d]imidazol-6-yl)-4-(cyclopentyloxy)-7H-pyrrolo[2,3-d]pyrimidin-2-ylamino)-3-methoxy-N-methylbenzamide] | > 7.00
Cc1cc(C(=O)N(C)C)ccc1Nc1nc(OC2CCOCC2)c2c(-c3nnco3)c[nH]c2n1 [Example 111, 4-(5-(1,3,4-oxadiazol-2-yl)-4-(tetrahydro-2H-pyran-4-yloxy)-7H-pyrrolo[2,3-d]pyrimidin-2-ylamino)-N,N,3-trimethylbenzamide] | 5.00 to 6.00
Cc1cc(C(=O)N(C)C)ccc1Nc1nc(OC2CCOCC2)c2c(-c3cnn(C)c3)c[nH]c2n1 [Example 112, N,N,3-trimethyl-4-(5-(1-methyl-1H-pyrazol-4-yl)-4-(tetrahydro-2H-pyran-4-yloxy)-7H-pyrrolo[2,3-d]pyrimidin-2-ylamino)benzamide] | > 7.00
Cc1cc(C(=O)N(C)C)ccc1Nc1nc(OC2CCOCC2)c2c(-c3ccn(C)n3)c[nH]c2n1 [Example 113, N,N,3-trimethyl-4-(5-(1-methyl-1H-pyrazol-3-yl)-4-(tetrahydro-2H-pyran-4-yloxy)-7H-pyrrolo[2,3-d]pyrimidin-2-ylamino)benzamide] | 6.00 to 6.40
CNC(=O)c1ccc(Nc2nc(OC3CCOCC3)c3c(-c4ccncc4)c[nH]c3n2)c(OC)c1 [Example 114, 3-methoxy-N-methyl-4-(5-(pyridin-4-yl)-4-(tetrahydro-2H-pyran-4-yloxy)-7H-pyrrolo[2,3-d]pyrimidin-2-ylamino)benzamide] | > 7.00
Cc1cc(C(=O)N(C)C)ccc1Nc1nc(OC2CCOCC2)c2c(-c3ncco3)c[nH]c2n1 [Example 115, N,N,3-trimethyl-4-(5-(oxazol-2-yl)-4-(tetrahydro-2H-pyran-4-yloxy)-7H-pyrrolo[2,3-d]pyrimidin-2-ylamino)benzamide] | 6.00 to 6.40
Cc1cc(C(=O)N(C)C)ccc1Nc1nc(OC2CCOCC2)c2c(-c3ccc4nc(N)[nH]c4c3)c[nH]c2n1 [Example 116, 4-(5-(2-amino-1H-benzo[d]imidazol-6-yl)-4-(tetrahydro-2H-pyran-4-yloxy)-7H-pyrrolo[2,3-d]pyrimidin-2-ylamino)-N,N,3-trimethylbenzamide] | > 7.00
Cc1cc(-c2c[nH]c3nc(Nc4ccc(C(=O)N(C)C)cc4C)nc(OC4CCOCC4)c23)ccn1 [Example 117, N,N,3-trimethyl-4-(5-(2-methyl-pyridin-4-yl)-4-(tetrahydro-2H-pyran-4-yloxy)-7H-pyrrolo[2,3-d]pyrimidin-2-ylamino)benzamide] | > 7.00
CNC(=O)c1ccc(Nc2nc(OC)c3c(-c4ccc(OC)nc4)c[nH]c3n2)c(OC)c1 [Example 118, 3-methoxy-4-(4-methoxy-5-(6-methoxypyridin-3-yl)-7H-pyrrolo [2,3-d]pyrimidin-2-ylamino)-N-methylbenzamide] | 6.40 to 7.00
CNC(=O)c1ccc(Nc2nc(OC3CCOCC3)c3c(-c4ccc(OC)nc4)c[nH]c3n2)c(OC)c1 [Example 119, 3-methoxy-4-(5-(6-methoxypyridin-3-yl)-4-(tetrahydro-2H-pyran-4-yloxy)-7H-pyrrolo[2,3-d]pyrimidin-2-ylamino)-N-methylbenzamide] | > 7.00
COCCNC(=O)c1ccc(Nc2nc(OC3CCOCC3)c3c(-c4ccc5nc(C)oc5c4)c[nH]c3n2)c(OC)c1 [Example 120, 3-methoxy-N-(2-methoxyethyl)-4-(5-(2-methylbenzo[d]oxazol-6-yl)-4-(tetrahydro-2H-pyran-4-yloxy)-7H-pyrrolo[2,3-d]pyrimidin-2-ylamino)benzamide] | > 7.00
Cc1nc2ccc(-c3c[nH]c4nc(Nc5ccc(C(=O)N(C)C)cc5C)nc(O[C@@H]5CCCOC5)c34)cc2o1 [Example 121, (R)-N,N,3-trimethyl-4-(5-(2-methylbenzo[d]oxazol-6-yl)-4-(tetrahydro-2H-pyran-3-yloxy)-7H-pyrrolo[2,3-d]pyrimidin-2-ylamino)benzamide] | 6.40 to 7.00
CNC(=O)c1ccc(Nc2nc(OC3CCOCC3)c3c(-c4cn[nH]c4)c[nH]c3n2)c(OC)c1 [Example 122, 4-(5-(1H-pyrazol-4-yl)-4-(tetrahydro-2H-pyran-4-yloxy)-7H-pyrrolo[2,3-d]pyrimidin-2-ylamino)-3-methoxy-N-methylbenzamide] | > 7.00
CNC(=O)c1ccc(-c2c[nH]c3nc(Nc4ccc(C(=O)NC)cc4OC)nc(OC4CCOCC4)c23)cc1 [Example 123, 3-methoxy-N-methyl-4-(5-(4-(methylcarbamoyl)phenyl)-4-(tetrahydro-2H-pyran-4-yloxy)-7H-pyrrolo[2,3-d]pyrimidin-2-ylamino) benzamide] | > 7.00
CNC(=O)c1ccc(-c2c[nH]c3nc(Nc4ccc(C(=O)NC)cc4OC)nc(OC)c23)cc1 [Example 124, 3-methoxy-4-(4-methoxy-5-(4-(methylcarbamoyl)phenyl)-7H-pyrrolo[2,3-d]pyrimidin-2-ylamino)-N-methylbenzamide] | 6.40 to 7.00
CNC(=O)c1ccc(Nc2nc(OC(C)C)c3c(-c4ccc5nc(C)oc5c4)c[nH]c3n2)c(OC)c1 [Example 125, 4-(4-isopropoxy-5-(2-methylbenzo[d]oxazol-6-yl)-7H-pyrrolo[2,3-d]pyrimidin-2-ylamino)-3-methoxy-N-methylbenzamide] | > 7.00
CNC(=O)c1ccc(Nc2nc(OC3CCOCC3)c3c(-c4ccc(N(C)C)nc4)c[nH]c3n2)c(OC)c1 [Example 126, 4-(5-(6-(dimethylamino)pyridin-3-yl)-4-(tetrahydro-2H-pyran-4-yloxy)-7H-pyrrolo[2,3-d]pyrimidin-2-ylamino)-3-methoxy-N-methylbenzamide] | 6.00 to 6.40
COc1cc(C(=O)NCCN(C)C)ccc1Nc1nc(OC2CCOCC2)c2c(-c3ccc4nc(C)oc4c3)c[nH]c2n1 [Example 127, N-(2-(dimethylamino)ethyl)-3-methoxy-4-(5-(2-methylbenzo[d]oxazol-6-yl)-4-(tetrahydro-2H-pyran-4-yloxy)-7H-pyrrolo[2,3-d]pyrimidin-2-ylamino)benzamide] | > 7.00
Cc1nc2ccc(-c3c[nH]c4nc(Nc5ccc(C(=O)N(C)C)cc5C)nc(OC5CCOCC5)c34)cc2[nH]1 [Example 128, N,N,3-trimethyl-4-(5-(2-methyl-1H-benzo[d]imidazol-6-yl)-4-(tetrahydro-2H-pyran-4-yloxy)-7H-pyrrolo[2,3-d]pyrimidin-2-ylamino)benzamide] | > 7.00
CNC(=O)c1ccc(Nc2nc(OC)c3c(-c4cn[nH]c4)c[nH]c3n2)c(OC)c1 [Example 129, 3-methoxy-4-(4-methoxy-5-(1H-pyrazol-4-yl)-7H-pyrrolo[2,3-d]pyrimidin-2-ylamino)-N-methylbenzamide] | 6.40 to 7.00
CNCCNC(=O)c1ccc(Nc2nc(OC3CCOCC3)c3c(-c4ccc5nc(C)oc5c4)c[nH]c3n2)c(OC)c1 [Example 130, 3-methoxy-N-(2-(methylamino)ethyl)-4-(5-(2-methylbenzo[d]oxazol-6-yl)-4-(tetrahydro-2H-pyran-4-yloxy)-7H-pyrrolo [2,3-d]pyrimidin-2-ylamino)benzamide] | 6.40 to 7.00
CNC(=O)c1ccc(Nc2nc(OC3CCOCC3)c3c(-c4ccnc(N(C)C)c4)c[nH]c3n2)c(OC)c1 [Example 131, 4-(5-(2-(dimethylamino)pyridin-4-yl)-4-(tetrahydro-2H-pyran-4-yloxy)-7H-pyrrolo[2,3-d]pyrimidin-2-ylamino)-3-methoxy-N-methylbenzamide] | > 7.00
CNC(=O)c1ccc(Nc2nc(O[C@H]3CCOC3)c3c(-c4ccc5nc(C)oc5c4)c[nH]c3n2)c(C)c1 [Example 133, (S)-N,3-dimethyl-4-(5-(2-methylbenzo[d]oxazol-6-yl)-4-(tetrahydrofuran-3-yloxy)-7H-pyrrolo[2,3-d]pyrimidin-2-ylamino)benzamide] | > 7.00
CNC(=O)c1ccc(Nc2nc(OC3CCOCC3)c3c(-c4ccc5nc(C)oc5c4C)c[nH]c3n2)c(OC)c1 [Example 135, 4-(5-(2,7-dimethylbenzo[d]oxazol-6-yl)-4-(tetrahydro-2H-pyran-4-yloxy)-7H-pyrrolo[2,3-d]pyrimidin-2-ylamino)-3-methoxy-N-methylbenzamide] | 5.00 to 6.00
CNC(=O)c1ccc(Nc2nc(OC3CCOCC3)c3c(-c4cc5oc(C)nc5cc4C)c[nH]c3n2)c(OC)c1 [Example 136, 4-(5-(2,5-dimethylbenzo[d]oxazol-6-yl)-4-(tetrahydro-2H-pyran-4-yloxy)-7H-pyrrolo[2,3-d]pyrimidin-2-ylamino)-3-methoxy-N-methylbenzamide] | 5.00 to 6.00
CNC(=O)c1ccc(Nc2nc(O[C@H]3CC[C@H](O)CC3)c3c(-c4ccc5nc(C)oc5c4)c[nH]c3n2)c(OC)c1 [Example 137, 4-(4-((1r,4r)-4-hydroxycyclo-hexyloxy)-5-(2-methylbenzo[d]oxazol-6-yl)-7H-pyrrolo[2,3-d]pyrimidin-2-ylamino)-3-methoxy-N-methylbenzamide] | > 7.00
CNCCOc1nc(Nc2ccc(C(=O)NC)cc2OC)nc2[nH]cc(-c3ccc4nc(C)oc4c3)c12 [Example 138, 3-methoxy-N-methyl-4-(4-(2-(methylamino)ethoxy)-5-(2-methylbenzo[d]oxazol-6-yl)-7H-pyrrolo[2,3-d]pyrimidin-2-ylamino)benzamide] | 5.00 to 6.00
CNC(=O)c1ccc(Nc2nc(OCCOC)c3c(-c4ccc5nc(C)oc5c4)c[nH]c3n2)c(OC)c1 [Example 139, 3-methoxy-4-(4-(2-methoxyethoxy)-5-(2-methylbenzo[d]oxazol-6-yl)-7H-pyrrolo[2,3-d]pyrimidin-2-ylamino)-N-methylbenzamide] | > 7.00
